Patent publication US11274268B2, “Detergent compositions for removing heavy metals and formaldehyde” (FNG RESEARCH CO., LTD., priority 2017, dated 2022)

Legend:
human skin = assay: Skin irritation test of active ingredient (patch method, CTFA guidelines); type: in vivo; details: for Test result (number of subject) (+) / Test result (number of subject) (−) / Test result (number of subject) (++) / Test result (number of subject) (±): 20 subjects, 24 hours patch; for Test result (number of subject) (+): apparent reddening; for Test result (number of subject) (−): no erythema or symptoms; for Test result (number of subject) (++): reddened and swollen; for Test result (number of subject) (±): slightly reddish; for Degree of irritation: Equation 1
Method: A total of 20 people (10 men and 10 women in their 20s and 30s) were tested for skin irritation using the patch method according to the guidelines of CTFA (The Cosmetic, Toiletry & Fragrance Association, Inc. Washington, D.C.).
A filter paper disk was placed in an 8 mm diameter, 10 panels of pin chamber.
After 24 hours, the pin chamber was removed, and skin conditions were visually observed. The degree and grade for skin irritation were calculated according to the following Equation 1, and the results are shown in Table 3 below.
[Criteria for Skin Irritation]
(−): No erythema or particularly no symptoms; (±): slightly reddish than the periphery; (+): Apparent reddening than periphery; (++): More reddened and swollen than periphery.
[Grade for Skin Irritation]
Degree of irritation 0-0.1: Grade I (unstimulated);
Degree of irritation 0.11-0.3: Grade II (weakly stimulated);
Degree of irritation 0.31-0.5: Grade III (moderately stimulated);
Degree of irritation 0.51 or more: Grade IV (strongly stimulated)

[1] = Formaldehyde removing ability test (GC); details: 2.0% formaldehyde solution, 3 molar equivalents, room temperature

Row | SMILES | Grade (human skin; content 0.1%) | Test result (number of subject) (+) (human skin; content 0.1%) | Test result (number of subject) (−) (human skin; content 0.1%) | Test result (number of subject) (++) (human skin; content 0.1%) | Test result (number of subject) (±) (human skin; content 0.1%) | Degree of irritation (human skin; content 0.1%) | Grade (human skin; content 0.5%) | Test result (number of subject) (+) (human skin; content 0.5%) | Test result (number of subject) (−) (human skin; content 0.5%) | Test result (number of subject) (++) (human skin; content 0.5%) | Test result (number of subject) (±) (human skin; content 0.5%) | Degree of irritation (human skin; content 0.5%) | Grade (human skin; content 1.0%) | Test result (number of subject) (+) (human skin; content 1.0%) | Test result (number of subject) (−) (human skin; content 1.0%) | Test result (number of subject) (++) (human skin; content 1.0%) | Test result (number of subject) (±) (human skin; content 1.0%) | Degree of irritation (human skin; content 1.0%) | Area (formaldehyde, GC) ([1]; 30 min) | Area (formaldehyde, GC) ([1]; 180 min) | other results
1 | O=C(O)c1ccc(N2CCN(c3ccc(C(=O)O)o3)CCN(c3ccc(C(=O)O)o3)CCN(c3ccc(C(=O)O)o3)CC2)o1 [Embodiment 8, 5,5′,5″,5′″-(1,4,7,10-tetraazacyclododecane-1,4,7,10-tetrayl)tetrakis(furan-2-carboxylic Acid)] | I (Degree of irritation 0-0.1: Grade I (unstimulated)) | 0 | 20 | 0 | 0 | 0 | I (Degree of irritation 0-0.1: Grade I (unstimulated)) | 0 | 20 | 0 | 0 | 0 | I (Degree of irritation 0-0.1: Grade I (unstimulated)) | 0 | 18 | 0 | 2 | 0.10 | 0.168 mAU * min | 0 mAU * min | Area (formaldehyde, GC) ([1]; Initial): 0.305 mAU * min
2 | O=C(O)CN1CCCN(CC(=O)O)CCN(CC(=O)O)CCCN(CC(=O)O)CC1 [Embodiment 9, 2,2′,2″,2′″-(1,4,8,11-tetraazacyclotetradecane-1,4,8,11-tetrayl)tetraacetic Acid] | I (Degree of irritation 0-0.1: Grade I (unstimulated)) | 0 | 20 | 0 | 0 | 0 | I (Degree of irritation 0-0.1: Grade I (unstimulated)) | 0 | 20 | 0 | 0 | 0 | I (Degree of irritation 0-0.1: Grade I (unstimulated)) | 0 | 18 | 0 | 2 | 0.10 | 0.182 mAU * min | 0 mAU * min | Area (formaldehyde, GC) ([1]; Initial): 0.305 mAU * min
3 | O=C(O)c1ccc(N2CCCN(c3ccc(C(=O)O)cc3)CCN(c3ccc(C(=O)O)cc3)CCCN(c3ccc(C(=O)O)cc3)CC2)cc1 [Embodiment 10, 4,4′,4″,4′-(1,4,8,11-tetraazacyclotetradecane-1,4,8,11-tetrayl)tetrabenzoic Acid] | I (Degree of irritation 0-0.1: Grade I (unstimulated)) | 0 | 20 | 0 | 0 | 0 | I (Degree of irritation 0-0.1: Grade I (unstimulated)) | 0 | 20 | 0 | 0 | 0 | I (Degree of irritation 0-0.1: Grade I (unstimulated)) | 0 | 19 | 0 | 1 | 0.05 | 0.171 mAU * min | 0 mAU * min | Area (formaldehyde, GC) ([1]; Initial): 0.305 mAU * min
4 | O=C(O)c1cncc(N2CCCN(c3cncc(C(=O)O)c3)CCN(c3cncc(C(=O)O)c3)CCCN(c3cncc(C(=O)O)c3)CC2)c1 [Embodiment 11, 5,5′,5″,5′″-(1,4,8,11-tetraazacyclotetradecane-1,4,8,11-tetrayl)tetranicotinic Acid] | I (Degree of irritation 0-0.1: Grade I (unstimulated)) | 0 | 20 | 0 | 0 | 0 | I (Degree of irritation 0-0.1: Grade I (unstimulated)) | 0 | 20 | 0 | 0 | 0 | I (Degree of irritation 0-0.1: Grade I (unstimulated)) | 0 | 18 | 0 | 2 | 0.10 | 0.174 mAU * min | 0 mAU * min | Area (formaldehyde, GC) ([1]; Initial): 0.305 mAU * min
5 | O=C(O)c1ccc(N2CCCN(c3ccc(C(=O)O)o3)CCN(c3ccc(C(=O)O)o3)CCCN(c3ccc(C(=O)O)o3)CC2)o1 [Embodiment 12, 5,5′,5″,5′″-(1,4,8,11-tetraazacyclotetradecane-1,4,8,1-tetrayl)tetrakis(furan-2-carboxylic Acid)] | I (Degree of irritation 0-0.1: Grade I (unstimulated)) | 0 | 20 | 0 | 0 | 0 | I (Degree of irritation 0-0.1: Grade I (unstimulated)) | 0 | 20 | 0 | 0 | 0 | I (Degree of irritation 0-0.1: Grade I (unstimulated)) | 0 | 19 | 0 | 1 | 0.05 | 0.170 mAU * min | 0 mAU * min | Area (formaldehyde, GC) ([1]; Initial): 0.305 mAU * min
6 | NCCNCCNCCN [Trientine, Triethylenetetramine, reference compound] | I (Degree of irritation 0-0.1: Grade I (unstimulated)) | 0 | 20 | 0 | 0 | 0 | I (Degree of irritation 0-0.1: Grade I (unstimulated)) | 0 | 19 | 0 | 1 | 0.05 | II (Degree of irritation 0.11-0.3: Grade II (weakly stimulated)) | 0 | 17 | 0 | 3 | 0.15 | 0.168 mAU * min | 0 mAU * min | Area (formaldehyde, GC) ([1]; Initial): 0.305 mAU * min
